Test results from US20240325330A1, “NEW METHOD TO TREAT ACIDOSIS RELATED DISEASES WITH ACETOACETATE” (INSTITUT NATIONAL DE LA SANTÉ ET DE LA RECHERCHE MÉDICALE, priority 2021, published 2024).

Tests used:
U937 cell line = details: cited from earlier work
[1] = system: human monocytes differentiated into macrophages under lactic acidosis (LA-Mφ); experiment: Autophagy assessed by TEM or molecularly (LC3, p62 western blot, mRNA); type: cell-based; details: day 3 LA-Mφ+AcAc relative to Mφ; data not shown
Text: (§1) Peripheral blood mononuclear cells (PBMC) were obtained from healthy human volunteers (Blood collection center, Angers, France; agreement ANG-2017-01) by standard density-gradient centrifugation on lymphocyte separation medium (Eurobio, Courtaboeuf, France). CD14+ monocytes were then isolated by positive magnetic cell-sorting (Miltenyi Biotec, Bergisch Gladbach, Germany). […]
(§2) Cells were lysed in Trizol reagent (Life Technologies, Thermo Fisher Scientific), and total RNA was extracted with the RNeasy Micro kit (Qiagen, Hilden, Germany) and then reverse-transcribed with the Superscript II reverse transcriptase (Life Technologies). Levels of mRNA encoding the indicated proteins were then analyzed by subjecting the cDNA obtained by reverse transcription to qPCR. Relative quantification was performed by the 2^−ΔΔCT method, with RPS18, EF1A, TBP, RPL13A and PPIA as references. Results are expressed as relative mRNA levels.
Levels of LC3-I, LC3-II, p62, β-actin, AMPKα and pAMPKα were evaluated by western blotting. […] Protein loading was assessed by probing the membrane with a rabbit anti-β-actin antibody (Abcam, Cambridge, UK). Bound antibodies were detected by incubation with 1 μg/mL peroxidase-conjugated anti-rabbit or anti-mouse IgG antibody (Life Technologies) or with an anti-AMPK Ab, with the SuperSignal West Femto system (Thermo Fisher Scientific). […]

[2] = system: human monocytes differentiated into macrophages under lactic acidosis (LA-Mφ); experiment: Mitochondrial mass (mtDNA copy number) and NRF2 mRNA expression; type: cell-based; details: data not shown
Text: as §1, §2
Mitochondrial DNA (mtDNA) content was determined by qPCR with primers specific for the ND4 and COX1 genes, and was weighted according to nuclear DNA levels, which were quantified by analyzing […], as previously described (23).

[3] = system: human monocytes differentiated into macrophages under lactic acidosis (LA-Mφ); experiment: Mitochondrial network architecture, morphology and size (confocal microscopy, TEM); type: cell-based; details: 5 mM AcAc, 10 mM lactic acid; compared with Mφ; data not shown
Description: Peripheral blood mononuclear cells (PBMC) were obtained from healthy human volunteers (Blood collection center, Angers, France; agreement ANG-2017-01) by standard density-gradient centrifugation on lymphocyte separation medium (Eurobio, Courtaboeuf, France). CD14+ monocytes were then isolated by positive magnetic cell-sorting (Miltenyi Biotec, Bergisch Gladbach, Germany). Monocytes (1×10^6 cells/mL) were cultured in complete medium (CM) consisting of RPMI 1640 (Lonza, Verviers, Belgium) supplemented with 10% fetal calf serum (FCS) (Eurobio), 2 mM L-glutamine, 1 mM sodium pyruvate, 0.1 mM non-essential amino acids, 10 mM HEPES, 100 U/mL penicillin and 100 μg/mL streptomycin (all from Lonza) in the presence of 50 ng/mL GM-CSF (R&D Systems, Minneapolis, MN). […]
Cells were first incubated with 150 nM MitoTracker Green (Thermo Fisher Scientific) in CM medium at 37° C. for 10 min. […] Image blobs were then analyzed with the regionprops function of Matlab.
We fixed 5×10^6 macrophages by incubation for 16 h at 4° C. with 2.5% electron-grade glutaraldehyde (LFD Distribution, Sainte Consorce, France) in 0.1 M phosphate buffer pH 7.4. […] Stitched images were reviewed and scored by a trained electron histopathologist for the presence of autophagy and mitophagy vacuoles. Mitochondrial size was determined by measuring the maximum Feret diameter on TEM images.

SMILES: CC(=O)CC(=O)[O-].[Li+] [AcAc, lithium acetoacetate]
- IL-6 and TNF production (U937 cell line): enhance IL-6 and TNF production
- autophagy [1]: not upregulated
- mitochondrial mass ([2]; LA-Mφ+AcAc (5 mM AcAc, 10 mM lactic acid)): no reduction of the mitochondrial mass
- expression of NRF2 ([2]; LA-Mφ+AcAc relative to LA-Mφ): tend to increase
- mitochondrial network architecture (morphology and size) [3]: protected the mitochondrial network architecture
